According to patent US4740233A, “Substituted 1,2,4-triazolo[1,5-a]-pyrimidine-2-sulfonamides and compositions and methods of controlling undesired vegetation and suppressing the nitrification of ammonium nitrogen in soil” (The Dow Chemical Company, priority 1986, dated 1988):

What was measured:
rice [1] = assay: Preemergent control of plant species; assay type: in vivo, Oryza sativa; conditions: Oryza sativa, pre-emergence, 336 h; 0.25 lb/acre; read-out: percent preemergent control
Outline: (§1)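 Seeds sown in agricultural soil beds in a greenhouse received aqueous emulsions of test compositions applied uniformly over the bed surface at the listed rates; water-treated beds served as control. After two weeks under greenhouse growth conditions, control was scored as growth reduction versus untreated plants of the same species.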

corn = assay: Preemergent control of plant species; assay type: in vivo, Zea mays; conditions: Zea mays, pre-emergence, 336 h; 0.25 lb/acre; read-out: percent preemergent control
Outline: as §1

sugar beet = assay: Preemergent control of plant species; assay type: in vivo, Beta saccharifera; conditions: Beta vulgaris, pre-emergence, 336 h; 0.25 lb/acre; read-out: percent preemergent control
Outline: as §1

pigweed = assay: Preemergent control of plant species; assay type: in vivo, Amaranthus spp.; conditions: Amaranthus retroflexus, pre-emergence, 336 h; 0.25 lb/acre; read-out: percent preemergent control
Method: (§2) The seeds of various species of plants were planted in beds of good agricultural soil in a greenhouse. A number of compositions of the present invention, generally in the nature of an aqueous emulsion, were applied at rates listed in the table so as to deposit a predetermined amount of active ingredients uniformly throughout the surface of the bed. Another seed bed was treated only with water to serve as a control. After treatment the seed beds were maintained for two weeks under greenhouse conditions conducive for good plant growth and watered as necessary. Control refers to the reduction in growth compared to the observed results of the same untreated species.

johnson grass = assay: Preemergent control of plant species; assay type: in vivo, Sorghum halepense; conditions: Sorghum halepense, pre-emergence, 336 h; 0.25 lb/acre; read-out: percent preemergent control
Outline: as §1

annual morning glory = assay: Preemergent control of plant species; assay type: in vivo, Ipomoea spp.; conditions: Ipomoea, pre-emergence, 336 h; 0.25 lb/acre; read-out: percent preemergent control
Outline: as §1

crabgrass = assay: Preemergent control of plant species; assay type: in vivo, Digitaria spp.; conditions: Digitaria sanguinalis, pre-emergence, 336 h; 0.25 lb/acre; read-out: percent preemergent control
Method: as §2

rape = assay: Preemergent control of plant species; assay type: in vivo, Brassica napus; conditions: Brassica napus, pre-emergence, 336 h; 0.25 lb/acre; read-out: percent preemergent control
Outline: as §1

yellow nutsedge [2] = assay: Preemergent control of plant species; assay type: in vivo, Cyperus esculentus; conditions: Cyperus, pre-emergence, 336 h; 0.25 lb/acre; read-out: percent preemergent control
Outline: as §1

yellow foxtail = assay: Preemergent control of plant species; assay type: in vivo, Setaria lutescens; conditions: Setaria, pre-emergence, 336 h; 0.25 lb/acre; read-out: percent preemergent control
Outline: as §1

velvetleaf = assay: Preemergent control of plant species; assay type: in vivo, Abutilon theophrasti; conditions: Abutilon theophrasti, pre-emergence, 336 h; 0.25 lb/acre; read-out: percent preemergent control
Outline: as §1

soybean = assay: Preemergent control of plant species; assay type: in vivo, Glycine max.; conditions: Glycine max, pre-emergence, 336 h; 0.25 lb/acre; read-out: percent preemergent control
Outline: as §1

wheat = assay: Preemergent control of plant species; assay type: in vivo, Triticum aestivum; conditions: Triticum aestivum, pre-emergence, 336 h; 0.25 lb/acre; read-out: percent preemergent control
Outline: as §1

jimsonweed = assay: Preemergent control of plant species; assay type: in vivo, Datura stramonium; conditions: Datura stramonium, pre-emergence, 336 h; 0.25 lb/acre; read-out: percent preemergent control
Outline: as §1

barnyardgrass [3] = assay: Preemergent control of plant species; assay type: in vivo, Echinochloa crusgalli; conditions: Echinochloa crus-galli, pre-emergence, 336 h; 0.25 lb/acre; read-out: percent preemergent control
Outline: as §1

sorghum = assay: Preemergent control of plant species; assay type: in vivo, Sorghum vulgare; conditions: Sorghum, pre-emergence, 336 h; 0.25 lb/acre; read-out: percent preemergent control
Outline: as §1

[4] = system: nitrification of ammonium nitrogen; assay: Suppression of nitrification of ammonium nitrogen in soil; conditions: 27° C.
Outline: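 Value is % NH4-N remaining after a two-week, 27° C incubation of treated soil held at 1/3 bar tension moisture. Nitrate was measured with an ion-selective electrode after extraction with ammonium sulfate solution and 10 min shaking.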

wild oats = assay: Preemergent control of plant species; assay type: in vivo; conditions: Avena fatua, pre-emergence, 336 h; 0.25 lb/acre; read-out: percent preemergent control
Outline: as §1

cotton = assay: Preemergent control of plant species; assay type: in vivo, Gossypium spp.; conditions: Gossypium hirsutum, pre-emergence, 336 h; 0.25 lb/acre; read-out: percent preemergent control
Outline: as §1

yellow nutsedge [5] = assay: Control of aquatic plant species (paddy water); assay type: in vivo, Cyperus esculentus; conditions: Cyperus, 216 h; 2.0 Kg/Ha, nine days; read-out: Percent control
Outline: (§3)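 Seedlings at the 1-2 inch stage were transplanted into about 2 inches of soil and flooded to roughly 1 inch. An acetone concentrate of test chemical was injected into the paddy water, with the injected volume varied to set concentration. Percent control was rated nine days after application.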

rice [6] = assay: Control of aquatic plant species (paddy water); assay type: in vivo, Oryza sativa; conditions: Oryza sativa, 216 h; 2.0 Kg/Ha, nine days; read-out: Percent control
Outline: as §3

barnyardgrass [7] = assay: Control of aquatic plant species (paddy water); assay type: in vivo, Echinochloa crusgalli; conditions: Echinochloa crus-galli, 216 h; 2.0 Kg/Ha, nine days; read-out: Percent control
Method: In testing for such utility, the plant species to be tested were transplanted into 16 oz. containers into about 2 inches of soil when they were in the 1-2 inch stage and then flooded to a depth of about 1 inch. An acetone concentrate of the chemical to be tested was then injected into the paddy water, the volume injected being varied as desired to provide the desired concentration. Percent control was evaluated nine days after application.

sprangletop = assay: Control of aquatic plant species (paddy water); assay type: in vivo, Leptochloa filiformis; conditions: Leptochloa filiformis, 216 h; 2.0 Kg/Ha, nine days; read-out: Percent control
Outline: as §3

Structure (SMILES)	plant injury at 280.212 g/ha (rice [1]) [%]	plant injury at 280.212 g/ha (corn) [%]	plant injury at 280.212 g/ha (sugar beet) [%]	pest or weed control at 280.212 g/ha (pigweed) [%]	pest or weed control at 280.212 g/ha (johnson grass) [%]	pest or weed control at 280.212 g/ha (annual morning glory) [%]	pest or weed control at 280.212 g/ha (crabgrass) [%]	plant injury at 280.212 g/ha (rape) [%]	pest or weed control at 280.212 g/ha (yellow nutsedge [2]) [%]	pest or weed control at 280.212 g/ha (yellow foxtail) [%]	pest or weed control at 280.212 g/ha (velvetleaf) [%]	plant injury at 280.212 g/ha (soybean) [%]	plant injury at 280.212 g/ha (wheat) [%]	pest or weed control at 280.212 g/ha (jimsonweed) [%]	pest or weed control at 280.212 g/ha (barnyardgrass [3]) [%]	plant injury at 280.212 g/ha (sorghum) [%]	% NH4-N Remaining After 2 Weeks Incubation ([4]; 0.06 ppm) [%]	% NH4-N Remaining After 2 Weeks Incubation ([4]; 1 ppm) [%]	pest or weed control at 280.212 g/ha (wild oats) [%]	plant injury at 280.212 g/ha (cotton) [%]	further results
Cc1nc2nc(S(=O)(=O)Nc3ccccc3C(F)(F)F)nn2c(C)c1C [Compound 112]	25	50	99	90	30	80	97	85	90	0	20	0	0	0	0	20	31	65	90	80	% NH4-N Remaining After 2 Weeks Incubation ([4]; 0.25 ppm): 53%; % NH4-N Remaining After 2 Weeks Incubation ([4]; 4 ppm): 72%
COc1cc(C)n2nc(S(=O)(=O)Nc3c(Cl)cccc3Cl)nc2n1 [Compound 178]	0	0	95	60	0	10	0	80	0	0	40	0		0	25	0		43		65	pest or weed control at 2000 g/ha (yellow nutsedge [5]): 90%; pest or weed control at 2000 g/ha (rice [6]): 50%; pest or weed control at 2000 g/ha (barnyardgrass [7]): 20%; pest or weed control at 2000 g/ha (sprangletop): 0%; % NH4-N Remaining After 2 Weeks Incubation ([4]; 0.1 ppm): 0%; % NH4-N Remaining After 2 Weeks Incubation ([4]; 10 ppm): 91%
Cc1cc(C)n2nc(S(=O)(=O)Nc3c(Cl)cc(F)cc3Cl)nc2n1 [Compound 44]	70	10	97	95	80	20	90	93	90	70	0	80	70	100	40	93		71	40	85	% NH4-N Remaining After 2 Weeks Incubation ([4]; 0.01 ppm): 0%; % NH4-N Remaining After 2 Weeks Incubation ([4]; 0.1 ppm): 42%; % NH4-N Remaining After 2 Weeks Incubation ([4]; 10 ppm): 95%
Cc1cc(C)n2nc(S(=O)(=O)Nc3cccc(Cl)c3Cl)nc2n1 [Compound 19]	20	0	90	90	0	50	20	95	40	0	70	20	0	0	0	0			0	90	
Cc1cc(C)n2nc(S(=O)(=O)Nc3ccccc3C(N)=O)nc2n1 [Compound 37]	97	95	97	100	95	90	70	95	100	97	95	95	0	100	97	95		7	0	95	% NH4-N Remaining After 2 Weeks Incubation ([4]; 0.01 ppm): 0%; % NH4-N Remaining After 2 Weeks Incubation ([4]; 0.1 ppm): 0%; % NH4-N Remaining After 2 Weeks Incubation ([4]; 10 ppm): 44%
Cc1cccc(Cl)c1NS(=O)(=O)c1nc2nc(C)c(C)c(C)n2n1 [Compound 113]	40	0	100	100	50	0	90	90	50	50	60	0	0	0	20	0	16	69	0	30	% NH4-N Remaining After 2 Weeks Incubation ([4]; 0.25 ppm): 39%; % NH4-N Remaining After 2 Weeks Incubation ([4]; 4 ppm): 86%
COCc1cccc(Cl)c1NS(=O)(=O)c1nc2nc(C)cc(C)n2n1 [Compound 91]	50	30	100	100	0		40	100		100	70	100	20	40		0	15	55	70	100	% NH4-N Remaining After 2 Weeks Incubation ([4]; 0.25 ppm): 46%; % NH4-N Remaining After 2 Weeks Incubation ([4]; 4 ppm): 80%
